The term Ki denotes the equilibrium dissociation constant of an inhibitor or competing ligand from its target. High values mean weaker binding, low ones tighter binding.

Experiment [1] has as its target Beta-2 adrenergic receptor (Rattus norvegicus, UniProt P10608).
The target of experiment [2] is Kappa-type opioid receptor (Homo sapiens, UniProt P41145).
For experiment [3], the target named is D(1A) dopamine receptor (Homo sapiens, UniProt P21728).
In experiment [4] the target is 5-hydroxytryptamine receptor 5A (Homo sapiens, UniProt P47898).
5-hydroxytryptamine receptor 5A, sequence (P47898 whole entry): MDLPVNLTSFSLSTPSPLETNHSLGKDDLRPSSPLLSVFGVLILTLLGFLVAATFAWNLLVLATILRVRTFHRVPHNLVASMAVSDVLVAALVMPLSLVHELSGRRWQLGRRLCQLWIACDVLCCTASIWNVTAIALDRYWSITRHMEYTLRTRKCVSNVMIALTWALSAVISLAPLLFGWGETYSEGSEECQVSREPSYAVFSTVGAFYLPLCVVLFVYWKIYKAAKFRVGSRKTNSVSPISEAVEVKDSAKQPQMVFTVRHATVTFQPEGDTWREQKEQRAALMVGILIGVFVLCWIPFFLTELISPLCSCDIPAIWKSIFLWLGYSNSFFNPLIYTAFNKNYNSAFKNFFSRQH
Experiment [5] concerns the target Alpha-2A adrenergic receptor (Homo sapiens, UniProt P08913).
Experiment [6] deals with D(2) dopamine receptor (Homo sapiens, UniProt P14416).
D(2) dopamine receptor, sequence (P14416 whole entry): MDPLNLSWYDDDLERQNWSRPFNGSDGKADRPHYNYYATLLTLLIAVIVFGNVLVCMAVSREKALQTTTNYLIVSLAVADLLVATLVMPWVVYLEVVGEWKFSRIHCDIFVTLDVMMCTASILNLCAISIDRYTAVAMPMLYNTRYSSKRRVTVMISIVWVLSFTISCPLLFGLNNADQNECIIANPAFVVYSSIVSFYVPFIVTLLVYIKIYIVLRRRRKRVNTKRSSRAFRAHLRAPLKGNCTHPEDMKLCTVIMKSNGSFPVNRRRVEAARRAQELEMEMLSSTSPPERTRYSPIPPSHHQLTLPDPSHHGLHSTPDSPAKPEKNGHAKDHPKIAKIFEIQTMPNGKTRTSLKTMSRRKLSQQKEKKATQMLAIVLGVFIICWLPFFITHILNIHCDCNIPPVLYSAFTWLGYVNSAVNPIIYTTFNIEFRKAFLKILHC
For experiment [7], the target named is Histamine H4 receptor (Homo sapiens, UniProt Q9H3N8).
Histamine H4 receptor, sequence (Q9H3N8 whole entry): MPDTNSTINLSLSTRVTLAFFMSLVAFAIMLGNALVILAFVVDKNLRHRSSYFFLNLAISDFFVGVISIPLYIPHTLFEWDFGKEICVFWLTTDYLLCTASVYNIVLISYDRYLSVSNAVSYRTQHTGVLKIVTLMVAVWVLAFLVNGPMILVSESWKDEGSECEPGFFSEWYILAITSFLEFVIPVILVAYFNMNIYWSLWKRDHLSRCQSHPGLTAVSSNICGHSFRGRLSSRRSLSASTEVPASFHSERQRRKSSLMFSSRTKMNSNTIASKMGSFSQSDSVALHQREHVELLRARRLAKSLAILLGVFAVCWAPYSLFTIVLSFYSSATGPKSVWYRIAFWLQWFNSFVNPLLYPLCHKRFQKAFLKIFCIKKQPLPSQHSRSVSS
Experiment [8] addresses Histamine H2 receptor (Homo sapiens, UniProt P25021).
In experiment [9] the target is Gamma-aminobutyric acid receptor subunit alpha-1 (Rattus norvegicus, UniProt P62813).
Gamma-aminobutyric acid receptor subunit alpha-1, sequence (P62813 whole entry): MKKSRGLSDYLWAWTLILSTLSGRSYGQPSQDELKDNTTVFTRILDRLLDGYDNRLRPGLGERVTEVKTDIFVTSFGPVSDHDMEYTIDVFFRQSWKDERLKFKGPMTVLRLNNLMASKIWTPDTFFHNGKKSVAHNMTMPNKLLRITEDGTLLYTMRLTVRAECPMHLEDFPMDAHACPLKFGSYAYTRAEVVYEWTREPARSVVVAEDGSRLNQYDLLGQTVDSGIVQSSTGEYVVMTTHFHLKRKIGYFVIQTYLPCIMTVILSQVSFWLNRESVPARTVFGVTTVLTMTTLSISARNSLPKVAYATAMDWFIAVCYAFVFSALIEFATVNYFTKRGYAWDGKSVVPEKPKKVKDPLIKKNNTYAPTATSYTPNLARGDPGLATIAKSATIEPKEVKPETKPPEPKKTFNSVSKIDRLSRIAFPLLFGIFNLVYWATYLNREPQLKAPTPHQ
Experiment [10] deals with 5-hydroxytryptamine receptor 1E (Homo sapiens, UniProt P28566).
5-hydroxytryptamine receptor 1E, sequence (P28566 whole entry): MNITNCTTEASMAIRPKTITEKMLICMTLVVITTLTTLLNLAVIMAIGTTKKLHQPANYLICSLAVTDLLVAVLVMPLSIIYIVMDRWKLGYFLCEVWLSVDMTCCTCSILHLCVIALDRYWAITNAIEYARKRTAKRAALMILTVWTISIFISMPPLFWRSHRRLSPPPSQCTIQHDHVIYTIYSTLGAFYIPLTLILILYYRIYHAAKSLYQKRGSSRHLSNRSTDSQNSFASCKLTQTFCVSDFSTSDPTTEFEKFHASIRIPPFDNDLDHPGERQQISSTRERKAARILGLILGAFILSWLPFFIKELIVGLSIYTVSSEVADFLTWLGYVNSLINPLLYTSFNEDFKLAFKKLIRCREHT
Experiment [11] concerns the target Muscarinic acetylcholine receptor M5 (Homo sapiens, UniProt P08912).
For experiment [12], the target named is 5-hydroxytryptamine receptor 6 (Homo sapiens, UniProt P50406).
5-hydroxytryptamine receptor 6, sequence (P50406 whole entry): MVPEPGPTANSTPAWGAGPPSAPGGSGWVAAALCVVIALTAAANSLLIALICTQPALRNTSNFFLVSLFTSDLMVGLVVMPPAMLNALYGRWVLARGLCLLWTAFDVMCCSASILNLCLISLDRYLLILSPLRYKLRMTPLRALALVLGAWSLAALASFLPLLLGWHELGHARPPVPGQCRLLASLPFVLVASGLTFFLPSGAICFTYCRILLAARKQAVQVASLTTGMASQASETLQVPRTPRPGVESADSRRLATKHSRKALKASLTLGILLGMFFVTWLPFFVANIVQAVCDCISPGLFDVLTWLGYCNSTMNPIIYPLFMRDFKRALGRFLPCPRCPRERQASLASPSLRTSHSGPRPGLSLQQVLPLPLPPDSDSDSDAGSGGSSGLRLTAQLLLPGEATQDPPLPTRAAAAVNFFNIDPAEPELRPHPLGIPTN
The target in experiment [13] is Histamine H1 receptor (Homo sapiens, UniProt P35367).
Histamine H1 receptor, sequence (P35367 whole entry): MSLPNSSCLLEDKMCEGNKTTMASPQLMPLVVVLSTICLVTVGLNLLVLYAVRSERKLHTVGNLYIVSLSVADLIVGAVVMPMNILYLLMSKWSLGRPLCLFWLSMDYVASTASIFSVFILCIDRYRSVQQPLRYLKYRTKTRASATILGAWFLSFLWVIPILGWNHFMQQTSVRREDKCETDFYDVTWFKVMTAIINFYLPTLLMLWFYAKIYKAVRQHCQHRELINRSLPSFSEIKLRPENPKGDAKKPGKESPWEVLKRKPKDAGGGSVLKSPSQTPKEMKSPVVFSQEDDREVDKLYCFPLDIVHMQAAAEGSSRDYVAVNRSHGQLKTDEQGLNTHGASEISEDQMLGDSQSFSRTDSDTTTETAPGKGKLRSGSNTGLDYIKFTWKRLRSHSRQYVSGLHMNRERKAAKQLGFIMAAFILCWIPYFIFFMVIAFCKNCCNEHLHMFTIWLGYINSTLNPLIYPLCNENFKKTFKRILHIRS
Experiment [14] concerns the target Alpha-2C adrenergic receptor (Homo sapiens, UniProt P18825).
In experiment [15] the target is Beta-1 adrenergic receptor (Rattus norvegicus, UniProt P18090).
In experiment [16] the target is Histamine H3 receptor (Cavia porcellus, UniProt Q9JI35).
Histamine H3 receptor, sequence (Q9JI35 whole entry): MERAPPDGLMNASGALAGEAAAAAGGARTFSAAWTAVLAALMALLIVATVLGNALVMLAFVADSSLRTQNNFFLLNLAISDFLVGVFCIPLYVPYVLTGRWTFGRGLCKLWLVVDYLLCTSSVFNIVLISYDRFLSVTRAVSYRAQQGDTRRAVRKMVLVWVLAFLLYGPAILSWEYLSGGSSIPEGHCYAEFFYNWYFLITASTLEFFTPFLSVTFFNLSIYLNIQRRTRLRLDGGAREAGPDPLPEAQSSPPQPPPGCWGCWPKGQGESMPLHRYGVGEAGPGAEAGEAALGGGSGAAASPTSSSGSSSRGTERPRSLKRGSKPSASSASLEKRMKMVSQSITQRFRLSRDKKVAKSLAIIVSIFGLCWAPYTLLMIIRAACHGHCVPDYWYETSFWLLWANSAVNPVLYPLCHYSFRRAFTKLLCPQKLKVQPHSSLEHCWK
The target of experiment [17] is D(3) dopamine receptor (Rattus norvegicus, UniProt P19020).
The target in experiment [18] is 5-hydroxytryptamine receptor 2A (Homo sapiens, UniProt P28223).
For experiment [19], the target named is Alpha-2B adrenergic receptor (Homo sapiens, UniProt P18089).
In experiment [20] the target is 5-hydroxytryptamine receptor 2C (Rattus norvegicus, UniProt P08909).
The target of experiment [21] is D(1B) dopamine receptor (Homo sapiens, UniProt P21918).
Experiment [22] deals with Mu-type opioid receptor (Homo sapiens, UniProt P35372).
Experiment [23] concerns the target Delta-type opioid receptor (Homo sapiens, UniProt P41143).
Experiment [24] has as its target Muscarinic acetylcholine receptor M2 (Homo sapiens, UniProt P08172).

Alpha-2C adrenergic receptor, sequence (P18825 whole entry): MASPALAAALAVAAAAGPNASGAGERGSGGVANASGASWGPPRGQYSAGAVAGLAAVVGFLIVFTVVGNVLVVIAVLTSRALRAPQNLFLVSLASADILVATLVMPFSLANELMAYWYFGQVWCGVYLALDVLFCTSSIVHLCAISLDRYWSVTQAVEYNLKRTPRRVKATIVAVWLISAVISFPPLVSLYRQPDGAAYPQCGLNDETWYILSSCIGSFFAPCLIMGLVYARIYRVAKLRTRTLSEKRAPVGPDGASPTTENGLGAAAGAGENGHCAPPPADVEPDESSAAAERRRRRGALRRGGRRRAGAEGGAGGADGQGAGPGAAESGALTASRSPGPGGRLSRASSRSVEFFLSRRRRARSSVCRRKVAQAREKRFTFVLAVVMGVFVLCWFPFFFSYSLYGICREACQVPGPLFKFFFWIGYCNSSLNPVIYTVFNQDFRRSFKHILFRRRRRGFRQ
Muscarinic acetylcholine receptor M2, sequence (P08172 whole entry): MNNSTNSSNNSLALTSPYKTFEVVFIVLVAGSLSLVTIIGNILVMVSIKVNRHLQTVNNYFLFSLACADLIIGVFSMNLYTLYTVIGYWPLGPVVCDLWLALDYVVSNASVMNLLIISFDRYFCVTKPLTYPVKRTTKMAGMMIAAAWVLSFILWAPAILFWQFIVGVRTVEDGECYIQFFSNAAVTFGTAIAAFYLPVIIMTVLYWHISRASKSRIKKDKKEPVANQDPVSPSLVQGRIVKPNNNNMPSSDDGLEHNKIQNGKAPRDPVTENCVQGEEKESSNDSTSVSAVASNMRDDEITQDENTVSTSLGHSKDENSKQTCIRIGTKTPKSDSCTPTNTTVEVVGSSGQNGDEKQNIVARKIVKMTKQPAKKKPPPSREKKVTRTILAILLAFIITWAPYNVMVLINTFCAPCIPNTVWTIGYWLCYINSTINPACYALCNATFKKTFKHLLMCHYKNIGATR
Histamine H2 receptor, sequence (P25021 whole entry): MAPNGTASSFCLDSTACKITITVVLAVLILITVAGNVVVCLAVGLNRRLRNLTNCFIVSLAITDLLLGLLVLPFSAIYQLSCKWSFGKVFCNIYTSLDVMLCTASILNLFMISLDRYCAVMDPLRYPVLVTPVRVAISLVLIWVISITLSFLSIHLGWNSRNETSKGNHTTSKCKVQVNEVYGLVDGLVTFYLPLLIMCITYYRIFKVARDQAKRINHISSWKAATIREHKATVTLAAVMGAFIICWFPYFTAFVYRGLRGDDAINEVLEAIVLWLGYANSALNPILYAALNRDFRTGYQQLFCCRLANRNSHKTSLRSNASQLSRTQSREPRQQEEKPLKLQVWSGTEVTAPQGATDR

`COc1ccccc1N1CCN(CCN(C(=O)C2CCCCC2)c2ccccn2)CC1`: the inhibition constant Ki was more than 10 µM in experiment [1]; 412 nM in experiment [2]; more than 10 µM in [3]; more than 10 µM in experiment [4]; more than 10 µM in experiment [5]; 940 nM in experiment [6]. For the same compound, the Ki in experiment [7], in [8], in experiment [9], in experiment [10], in experiment [11] and in [12] was more than 10 µM throughout. The Ki in experiment [13] was more than 10 µM; in experiment [14] it was 2570 nM; in [15], more than 10 µM; in experiment [16], more than 10 µM; in [17], 370 nM; in experiment [18], 6.26 µM. Further, the inhibition constant (Ki) in [19], in experiment [20], in [21], in experiment [22], in experiment [23] and in experiment [24] was more than 10 µM in each case.

The values are drawn from BindingDB's records for doi:10.1007/s00213-006-0490-4 (Purdue University, 2006).
